Test results: patent US9951060B2, “2-acylaminothiazole derivative or salt thereof” (ASTELLAS PHARMA INC., priority 2014, dated 2018)

What was measured:
[1] = target: T1, human c-Mpl-introduced Ba/F3 cell (Homo sapiens, UniProt P40238); experiment: Test Example 2: human c-Mpl-introduced Ba/F3 cell proliferative activity; type: cell-based; details: concentration exhibiting 30% proliferation; 100% = positive control (Example 315 of Patent Document 1) at 1 μM
T1 construct: expressed in transfected cells
T1 sequence (P40238 26-635): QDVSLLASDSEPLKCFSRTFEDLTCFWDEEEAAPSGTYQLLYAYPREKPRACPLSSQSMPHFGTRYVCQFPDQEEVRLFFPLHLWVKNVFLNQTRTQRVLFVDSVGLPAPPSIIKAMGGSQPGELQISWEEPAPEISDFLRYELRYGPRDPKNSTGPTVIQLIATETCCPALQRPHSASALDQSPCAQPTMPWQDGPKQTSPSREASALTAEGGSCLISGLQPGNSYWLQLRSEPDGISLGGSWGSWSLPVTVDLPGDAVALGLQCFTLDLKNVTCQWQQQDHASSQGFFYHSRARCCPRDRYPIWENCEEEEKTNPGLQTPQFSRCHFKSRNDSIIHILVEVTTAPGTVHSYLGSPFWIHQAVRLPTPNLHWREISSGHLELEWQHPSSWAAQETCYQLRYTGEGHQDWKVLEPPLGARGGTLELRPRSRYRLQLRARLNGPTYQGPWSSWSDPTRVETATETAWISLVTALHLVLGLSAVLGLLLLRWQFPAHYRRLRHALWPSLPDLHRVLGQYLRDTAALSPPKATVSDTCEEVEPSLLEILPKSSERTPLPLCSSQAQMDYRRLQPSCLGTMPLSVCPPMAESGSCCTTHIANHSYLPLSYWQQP
Protocol: Test Example 2: Evaluation of Human c-Mpl-Introduced Ba/F3 Cell Proliferative Activity
The human c-Mpl-introduced Ba/F3 cell proliferation action was measured by the following method.
As a positive control, 1-(5-{[4-(4-chlorothiophen-2-yl)-5-{[(2R)-2-methylpyrrolidin-1-yl]methyl}-1,3-thiazol-2-yl]carbamoyl}-3-fluoropyridin-2-yl)piperidine-4-carboxylic acid hydrochloride disclosed as Example 315 in Patent Document 1, represented by the formula (A1) above, was used. Further, it is known that the compound has a good human c-Mpl-introduced Ba/F3 cell proliferative activity as disclosed in Table 1 in Patent Document 1.
a) Construction of Vector Expressing Human c-Mpl Receptor
A human c-Mpl receptor gene (GenBank Accession No.: M90102.1) was transfected into an expression vector pEF-BOS (Nucleic Acids Research, 18: pp 5322 (1990)).
b) Construction of Cell Stably Expressing Human c-Mpl Receptor
A vector expressing a human c-Mpl receptor was introduced into a Ba/F3 cell (RIKEN BRC: RCB0805). For the introduction, an electroporation method was used. pEF-BOS-c-mpl (10 μg), pSV2bsr (1 μg, Kaken Pharmaceutical Co., Ltd.) and 1×10^7 of Ba/F3 cells were put into cuvettes with a gap width of 0.4 cm and electroporated under a condition of 1.5 kV (25 μF) in a Gene Pulser (registered trademark) (BioRad). The cells were incubated in an RPMI-1640 medium supplemented with a 0.5% WEHI conditioned medium (BD Biosciences) and 10% fetal bovine serum for 3 days, and thereafter, and the cells were incubated for 30 days in an RPMI-1640 medium, to which 10 μg/mL blasticidin had been further added, thereby acquiring a drug-resistant clone.
c) Measurement of Cell Proliferative Activity
The cells obtained in b) above were dispensed into an RPMI-1640 medium supplemented with a 0.5% WEHI conditioned medium and 10% fetal bovine serum, and used. The day before the experiment, the test substances (final concentration of 100 nM to 10 μM) which had been dissolved in a medium for assay (an RPMI-1640 medium supplemented with 10% fetal bovine serum) were added to a 384-well plate (Model No. 781185, Greiner bio-one). The cells after the medium had been replaced with the medium for assay were dispensed to a 384-well plate to which the test substance had been added, to 1×10^4 cells/well, and incubated overnight at 37° C. and 5% CO2. On the experiment day, a solution of a Cell counting kit (Dojindo Laboratories) was added to each well of the 384-well plate, and the cells were incubated for about 5 hours at 37° C. and 5% CO2. Thereafter, the absorbance (an absorbance wavelength of 450 nm) of each well was measured using Safire^2 (registered trademark) (TECAN), and used as an index for the number of cells. Further, as a negative control, a well to which the test substances had not been added was prepared.
By taking the absorbance of the well to which the test substance had been not added as 0% and taking the absorbance in a case where the positive control had been added to a final concentration of 1 μM as 100%, a cell proliferation rate (%) was calculated from the absorbance of the well to which the test substance had been added.

[2] = target: human muscarinic M3 receptor (Homo sapiens, UniProt P20309)
Sequence of human muscarinic M3 receptor (P20309 whole entry): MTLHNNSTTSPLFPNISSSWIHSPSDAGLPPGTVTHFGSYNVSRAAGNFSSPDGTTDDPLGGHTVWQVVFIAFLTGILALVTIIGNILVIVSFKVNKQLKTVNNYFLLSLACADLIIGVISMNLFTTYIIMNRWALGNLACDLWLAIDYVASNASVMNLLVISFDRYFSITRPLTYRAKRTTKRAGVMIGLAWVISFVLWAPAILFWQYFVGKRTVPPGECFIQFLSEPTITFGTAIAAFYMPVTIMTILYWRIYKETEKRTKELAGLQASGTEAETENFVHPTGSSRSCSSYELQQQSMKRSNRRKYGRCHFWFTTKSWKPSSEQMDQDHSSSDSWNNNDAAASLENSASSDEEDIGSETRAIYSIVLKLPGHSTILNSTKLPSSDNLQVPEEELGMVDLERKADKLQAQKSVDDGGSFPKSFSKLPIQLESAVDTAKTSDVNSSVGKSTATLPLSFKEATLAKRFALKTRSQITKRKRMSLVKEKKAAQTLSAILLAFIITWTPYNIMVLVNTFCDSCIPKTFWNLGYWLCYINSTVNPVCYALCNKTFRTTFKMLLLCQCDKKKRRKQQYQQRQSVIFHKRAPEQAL

SMILES | human c-Mpl-introduced Ba/F3 cell proliferative activity EC30 [1] | muscarinic M3 receptor-positive allosteric modulator activity, 1 μM (-fold shift) [2] | muscarinic M3 receptor-positive allosteric modulator activity, 10 μM (-fold shift) [2]
CC(C(=O)O)N1CCN(c2cnc(C(=O)Nc3nc(-c4cc(Cl)cc(C(F)(F)F)c4)c(CN4CCC[C@H]4C)s3)cn2)CC1 (stereo partly drawn) [Example 12] | >10 µM | 33 -fold shift | 178 -fold shift
C[C@@H]1CCCN1Cc1sc(NC(=O)c2cnc(N3CCN(CCC(=O)O)C[C@@H]3C)cn2)nc1-c1cc(F)cc(C(F)(F)F)c1 [Example 17] | >10 µM | 15 -fold shift | 109 -fold shift
C[C@@H]1CCCN1Cc1sc(NC(=O)c2cnc(N3CCN(CCC(=O)O)CC3)cn2)nc1-c1cc(Br)cc(C(F)(F)F)c1 [Example 27] | >10 µM | 31 -fold shift | 330 -fold shift
COc1ncc(-c2nc(NC(=O)c3cnc(N4CCN(CCC(=O)O)CC4)cn3)sc2CN2CCC[C@H]2C)cc1C(F)(F)F [Example 33] | >10 µM | 40 -fold shift | 182 -fold shift
CC[C@@H]1CCCN1Cc1sc(NC(=O)c2cnc(N3CCN(CC(=O)O)CC3)cn2)nc1-c1ccc(OC)c(C(F)(F)F)c1 [Example 41] | >10 µM | 43 -fold shift | 160 -fold shift
CCOc1ccc(-c2nc(NC(=O)c3cnc(N4CCN(CCC(=O)O)CC4)cn3)sc2CN2CCC[C@H]2C)cc1C(F)(F)F [Example 54] | >10 µM | 36 -fold shift | 134 -fold shift
CC[C@@H]1CCCN1Cc1sc(NC(=O)c2cnc(N3CCN(CC(=O)O)CC3)cn2)nc1-c1cc(F)cc(C(F)(F)F)c1 [Example 62] | >10 µM | 37 -fold shift | 195 -fold shift
C[C@@H]1CCCN1Cc1sc(NC(=O)c2cnc(N3CCN(CCC(=O)O)CC3)cn2)nc1-c1ccc(C2CC2)c(C(F)(F)F)c1 [Example 63] | >10 µM | 39 -fold shift | 186 -fold shift
CC[C@@H]1CCCN1Cc1sc(NC(=O)c2cnc(N3CCN(CCC(=O)O)CC3)cn2)nc1-c1cc(C2CC2)cc(C(F)(F)F)c1 [Example 69] | >10 µM | 27 -fold shift | 177 -fold shift
Cc1cc(-c2nc(NC(=O)c3cnc(N4CCN(CC(=O)O)CC4)cn3)sc2CN2CCC[C@H]2C)cc(C(F)(F)F)c1 [Example 71] | >10 µM | 28 -fold shift | 151 -fold shift
C[C@@H]1CN(c2cnc(C(=O)Nc3nc(-c4cc(Cl)cs4)c(CN4CCC[C@H]4C)s3)cn2)CCN1CCC(=O)O [Example 79] | 1.8 µM | 60 -fold shift | 171 -fold shift
CC[C@@H]1CCCN1Cc1sc(NC(=O)c2cnc(N3CCN(CCC(=O)O)[C@@H](C)C3)cn2)nc1-c1cc(Cl)cs1 [Example 81] | 0.5 µM | 89 -fold shift | 94 -fold shift
COc1c(F)cc(-c2nc(NC(=O)c3cnc(N4CCN(CCC(=O)O)C[C@@H]4C)cn3)sc2CN2CCC[C@H]2C)cc1C(F)(F)F [Example 91] | >10 µM | 19 -fold shift | 139 -fold shift
COc1c(F)cc(-c2nc(NC(=O)c3cnc(N4CCN(CCC(=O)O)C[C@H]4C)cn3)sc2CN2CCC[C@H]2C)cc1C(F)(F)F [Example 92] | >10 µM | 30 -fold shift | 203 -fold shift
C[C@@H]1CCCN1Cc1sc(NC(=O)c2cnc(N3CCN(CCC(=O)O)CC3)cn2)nc1-c1cc(Br)cs1 [Example 97] | 2.8 µM | 55 -fold shift | 121 -fold shift
C[C@@H]1CCCN1Cc1sc(NC(=O)c2cnc(N3CCN(CCC(=O)O)C[C@@H]3C)cn2)nc1-c1cc(C(F)(F)F)cs1 [Example 100] | 3.2 µM | 82 -fold shift | 229 -fold shift
C[C@@H]1CCCN1Cc1sc(NC(=O)c2cnc(N3CCN(CCC(=O)O)C[C@H]3C)cn2)nc1-c1cc(Br)cs1 [Example 101] | 2.7 µM | 64 -fold shift | 112 -fold shift
C[C@@H]1CCCN1Cc1sc(NC(=O)c2cnc(N3CCN(CC(=O)O)CC3)cn2)nc1-c1cc(C(F)(F)F)cs1 [Example 103] | 1.7 µM | 202 -fold shift | 307 -fold shift
CCN(Cc1sc(NC(=O)c2cnc(N3CCN(CCC(=O)O)CC3)cn2)nc1-c1cc(F)cc(C(F)(F)F)c1)C(C)C [Example 106] | >10 µM | 41 -fold shift | 270 -fold shift
CC(C)CN(C)Cc1sc(NC(=O)c2cnc(N3CCN(CCC(=O)O)CC3)cn2)nc1-c1cc(F)cc(C(F)(F)F)c1 [Example 107] | >10 µM | 73 -fold shift | 318 -fold shift
CN(Cc1sc(NC(=O)c2cnc(N3CCN(CCC(=O)O)CC3)cn2)nc1-c1cc(F)cc(C(F)(F)F)c1)CC1CC1 [Example 108] | >10 µM | 56 -fold shift | 169 -fold shift
